Measurements reported in patent publication US20030186967A1, “Acylresorcinol derivatives are selective vitronectin receptor inhibitors” (American Home Products Corporation, priority 1998, published 2003).
Where a name gives a salt, the structure may show the parent alone. Read-outs that look alike come from different tables or passages of the source. Ends that are not written are not given here.

Assays:
αVβ3 integrin = target: T1, αVβ3 integrin (Homo sapiens, UniProt P05106+P06756); experiment: Osteopontin-αVβ3 Cell Attachment Assay; assay type: cell-based
T1 construct: αVβ3-expressing cell lines are maintained by standard tissue culture techniques; endogenous in cells; host or cells: αVβ3-expressing cell lines
Procedure: Osteopontin-αVβ3 Cell Attachment Assay The purpose of this assay is to measure the effect of various compounds on the RGD-dependent attachment of cells to osteopontin mediated by the αVβ3 integrin. […] Following the blocking period, wells are aspirated and washed once with D-PBS. Cell Suspension αVβ3-expressing cell lines are maintained by standard tissue culture techniques. […] The cells are pelleted by low-speed centrifugation and washed three times with 0.5 mg/mL trypsin inhibitor in D-PBS (Sigma). The final cell pellet is resuspended in cell suspension media at a concentration of 10^6 cells/mL. Attachment Assay Incubation: […] of diluted test compound is added to osteopontin-coated wells (in triplicate) followed by […] of cell suspension; background cell attachment is determined in uncoated wells. The plate is incubated at 25° C. in a humidified air atmosphere for 1.5 hours. Following the incubation period, the wells are gently aspirated and washed once with D-PBS. Cell Number Detection: The number of cells attached is determined by an MTT dye conversion assay (Promega) according to the manufacturer's instructions. Briefly, MTT dye is diluted in cell suspension media (15:85) and […] is added to each well. […] The assay plates are covered and incubated at 37° C. in a humidified air atmosphere overnight. […] Reference Compounds Various […]

osteoclasts = experiment: Osteoclast Pitting Assay; assay type: cell-based, rat
Procedure: The assay is conducted as described in Murrills and Dempster (1990). Briefly, 4×4×0.2 mm slices of devitalized bovine cortical bone are numbered, placed in the wells of 96-well culture plates and wetted with 100 ul of Medium 199 containing Hanks salts, 10 mM HEPES, pH 7.0 (Medium 199/Hanks). Bone cell suspensions containing osteoclasts are prepared by mincing the long bones of neonatal rats (Sprague-Dawley, 4-6 days old) in Medium 199/Hanks. 100 uL of the suspension is then plated onto each slice and incubated 30 minutes to allow osteoclasts to adhere. The slices are rinsed to remove non-adherent cells and incubated 24 h in Medium 199 containing Earle's salts, 10 mM HEPES and 0.7 g/L NaHCO3, which equilibrates at pH 6.9 in a 5% CO2 atmosphere. At this pH the adherent osteoclasts excavate an adequate number of resorption pits for assay purposes. Slices are fixed in 2.5% glutaraldehyde and osteoclasts counted following tartrate-resistant acid phosphatase staining. […] All cells are stripped from the slice by sonication on 0.25M NH4OH and the resorption pits formed by the osteoclasts during the experiment stained with toluidine blue. Resorption pits are quantified by manually counting.
The experiments are conducted according to a block design with osteoclasts from each animal exposed to each treatment. Three replicate slices are used per treatment per animal, such that a total of 96 slices are examined for an experiment involving four animals and eight treatments (including control). Several parameters are recorded on a “per slice” basis: number of pits, number of osteoclasts, number of pits per osteoclast, number of fibroblast-like bone cells. SAS or JMP statistical software is used for statistical analysis. […] IC50s are calculated for active compounds using dose-response curves.
Reference Compound: Rat calcitonin.
Osteoclasts are responsible for the bone loss that occurs in the onset of osteoporosis and anti-resorptive drugs directed against the osteoclast are a requirement for patients losing bone.

[1] = test system: thyro-parathyroidectomized (TPTX) rats; experiment: PTH-induced hypercalcemia of thyroparathyroidectomized male rats; assay type: in vivo, rat; conditions: Rattus norvegicus
Procedure: Effects of test compounds on PTH-induced hypercalcemia of thyroparathyroidectomized male rats
Male thyro-parathyroidectomized (TPTX) rats (Charles River) were randomly assigned to groups of 7 rats/group. Following a baseline serum calcium determination an Alzet 1003D minipump (Alza Corporation, Palo Alto, Calif.) loaded with 0.3 mg/ml PTH (Bachem, Philadelphia, Pa.) was implanted subcutaneously in each rat. For evaluation of prophylactic effects of a test drug, another minipump with appropriate concentration of the test drug solution was implanted subcutaneously at a site away from PTH minipump. Alternatively, test drugs were administered by oral gavage as a solution or uniform suspension in an appropriate medium depending on the physical properties of the test compound. A group of 7 unimplanted TPTX rats was set aside as a normal control group. Twenty hours after minipump implantation blood was collected from each rat to confirm the presence of hypercalcemia (judged by elevation of serum calcium levels, 2 SD>normal non-implanted level). At various intervals between 0.5 and 24 hours after dosing (usually one to three time points), blood was collected from each rat and the serum evaluated for total calcium. Serum calcium levels were measured using the Nova 7+7 calcium auto analyzer spectrophotometrically using the Sigma test kit (#587A). Test results were determined by the difference in serum calcium between vehicle and treatment group following PTH administration, using a one-way analysis of variance with Dunnett's test or other multiple comparison methods.

[2] = target: T2, Vitronectin receptor αVβ3 (Homo sapiens, UniProt P05106+P06756); experiment: Vitronectin Receptor αVβ3 Binding Assay; conditions: read-out: VnR (IC50μM)
T2 construct: expressed in transfected cells; host or cells: 512P5 cells (plasma membrane preparation)

[3] = Osteoclast Pitting Assay, neonatal rat osteoclasts on bovine cortical bone slices, read-out: IC50 (μM) Bone Pitting

T2 sequence (P06756 31-889 limits assumed): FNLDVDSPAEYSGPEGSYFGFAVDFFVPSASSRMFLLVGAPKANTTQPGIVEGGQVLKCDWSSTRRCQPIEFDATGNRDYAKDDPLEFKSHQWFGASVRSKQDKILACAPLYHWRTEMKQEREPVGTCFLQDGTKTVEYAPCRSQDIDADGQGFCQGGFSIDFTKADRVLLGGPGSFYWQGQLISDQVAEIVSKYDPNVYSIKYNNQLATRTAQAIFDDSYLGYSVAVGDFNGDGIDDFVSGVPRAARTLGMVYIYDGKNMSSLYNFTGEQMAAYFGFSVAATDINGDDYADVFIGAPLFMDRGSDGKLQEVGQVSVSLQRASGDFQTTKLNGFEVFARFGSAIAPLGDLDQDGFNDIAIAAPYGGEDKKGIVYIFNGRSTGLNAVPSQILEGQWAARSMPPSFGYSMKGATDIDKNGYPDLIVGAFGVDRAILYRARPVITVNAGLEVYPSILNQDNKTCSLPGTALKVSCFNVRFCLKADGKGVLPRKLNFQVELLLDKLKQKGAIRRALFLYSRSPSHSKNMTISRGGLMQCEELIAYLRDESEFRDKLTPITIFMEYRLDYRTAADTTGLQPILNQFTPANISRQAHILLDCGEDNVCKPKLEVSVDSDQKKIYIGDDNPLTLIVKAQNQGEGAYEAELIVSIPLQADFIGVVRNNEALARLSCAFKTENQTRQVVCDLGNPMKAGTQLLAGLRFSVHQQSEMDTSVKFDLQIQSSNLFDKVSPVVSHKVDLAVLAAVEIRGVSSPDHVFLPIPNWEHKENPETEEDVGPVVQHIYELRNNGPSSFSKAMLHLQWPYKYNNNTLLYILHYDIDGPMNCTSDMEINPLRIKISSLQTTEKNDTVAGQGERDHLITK
T2 sequence (P06756 891-1048 partner limits assumed): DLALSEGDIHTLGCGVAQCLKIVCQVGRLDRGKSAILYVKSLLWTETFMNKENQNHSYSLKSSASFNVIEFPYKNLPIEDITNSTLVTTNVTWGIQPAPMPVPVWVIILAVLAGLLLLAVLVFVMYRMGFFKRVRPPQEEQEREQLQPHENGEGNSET
T2 sequence (P05106 27-788): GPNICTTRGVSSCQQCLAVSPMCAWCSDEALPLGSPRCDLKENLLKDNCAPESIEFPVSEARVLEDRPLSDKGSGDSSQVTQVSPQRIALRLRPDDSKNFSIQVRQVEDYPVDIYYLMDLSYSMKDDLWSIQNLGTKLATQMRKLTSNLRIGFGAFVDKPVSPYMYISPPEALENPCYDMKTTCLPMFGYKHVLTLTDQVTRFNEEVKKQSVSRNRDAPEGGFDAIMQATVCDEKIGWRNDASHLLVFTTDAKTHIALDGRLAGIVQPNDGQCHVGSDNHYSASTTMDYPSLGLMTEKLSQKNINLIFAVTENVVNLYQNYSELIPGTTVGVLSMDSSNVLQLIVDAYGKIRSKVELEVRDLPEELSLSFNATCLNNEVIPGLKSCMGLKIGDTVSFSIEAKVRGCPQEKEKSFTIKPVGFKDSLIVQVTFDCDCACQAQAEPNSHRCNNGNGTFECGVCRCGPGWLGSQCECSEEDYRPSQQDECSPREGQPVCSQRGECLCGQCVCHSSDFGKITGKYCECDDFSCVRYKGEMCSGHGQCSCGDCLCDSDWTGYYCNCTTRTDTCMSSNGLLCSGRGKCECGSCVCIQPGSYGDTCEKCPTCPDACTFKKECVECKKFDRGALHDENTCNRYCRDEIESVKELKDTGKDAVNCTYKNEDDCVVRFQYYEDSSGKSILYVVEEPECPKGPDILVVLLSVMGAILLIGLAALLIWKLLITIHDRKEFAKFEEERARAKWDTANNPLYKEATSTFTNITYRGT
T1 sequence (P06756 31-889 limits assumed): as the sequence (P06756 31-889 limits assumed) above
T1 sequence (P06756 891-1048 partner limits assumed): as the sequence (P06756 891-1048 partner limits assumed) above
T1 sequence (P05106 27-788): as the sequence (P05106 27-788) above

Compound | IC50 (αVβ3 integrin) | IC50 (osteoclasts; [3]) | inhibition in vivo at 100 mg/kg ([1]; sc) | IC50 [2] | further results
O=C(NC[C@H](NS(=O)(=O)c1ccccc1)C(=O)O)c1ccc(OCCNc2ncccn2)cc1O [Example 274] | 18 µM | 0.9 µM | 54% | – | –
O=C(NC[C@H](NS(=O)(=O)c1ccccc1)C(=O)O)c1ccc(OCCNC2=NCCCN2)cc1O [Example 275, 2(S)-Benzenesulfonylamino-3-[2-hydroxy-4-[2-(3,4,5,6-tetrahydro-pyrimidin-2-ylamino)ethoxy]benzoylamino]propionic acid hydrochloride] | 0.002 µM | 0.43 µM | 112% | – | inhibition in vivo at 100 mg/kg ([1]; po): 39%; inhibition in vivo at 30 mg/kg ([1]; sc, 30 mg/kg): 64%; inhibition in vivo at 75 mg/kg ([1]; sc, 75 mg/kg): 105%
CCOC(=O)[C@H](CNC(=O)c1ccc(OCCNC2=NCCCN2)cc1O)NS(=O)(=O)c1ccccc1 [Example 276, hydrochloride] | 0.12 µM | 0.15 µM | 170% | – | –
CCOC(=O)[C@H](CNC(=O)c1ccc(OCCNC2=NCCCN2)cc1O)NC(=O)OCc1ccccc1 [Example 277, 2(S)-Benzyloxycarbonylamino-3-[2-hydroxy-4-[2-(3,4,5,6-tetra-hydropyrimidin-2-ylamino)ethoxy]benzoylamino]propionic acid ethyl ester hydrochloride] | 0.05 µM | 0.4 µM | 86% | – | inhibition in vivo at 100 mg/kg ([1]; po): 79%
O=C(N[C@@H](CNC(=O)c1ccc(OCCNC2=NCCCN2)cc1O)C(=O)O)OCc1ccccc1 [Example 278, 2(S)-Benzyloxycarbonylamino-3-[2-hydroxy-4-[2-(3,4,5,6-tetrahydro-pyrimidin-2-ylamino)ethoxy]benzoylamino]propionic acid hydrochloride] | 0.02 µM | 0.5 µM | – | – | –
N=C(N)NCCOc1ccc(C(=O)NC(CC(=O)O)c2ccccc2)c(O)c1 (stereo not shown) [Example 280, 3-[4-Guanidinoethoxy)-2-hydroxy-benzoylamino]-3-phenylpropanoic acid, hydrochloride] | 78 µM | – | – | 12.3 µM | IC50 (μM) Bone Pitting (osteoclasts; Osteoclast Pitting Assay, neonatal rat osteoclasts on bovine cortical bone slices): inactive @ 200
N=C(N)NCCOc1ccc(C(=O)NC(CC(=O)O)c2cccnc2)c(O)c1 (stereo not shown) [Example 285, 3-[4-(2-Guanidino-ethoxy)-2-hydroxybenzoyl-amino]-3-pyridin-3-yl-propanoic acid] | 56 µM | – | – | 5 µM | –
O=C(O)CC(NC(=O)c1ccc(OCCNc2ncccn2)cc1O)c1cccnc1 (stereo not shown) [Example 286, 3-[2-hydroxy-4-[2-(pyrimidin-2-ylamino)-ethoxy]benzoylamino]-3-pyridin-3-yl-propanoic acid] | 86 µM | – | – | 2.8 µM | –
CCOC(=O)CC(NC(=O)c1ccc(OCCNc2ncccn2)cc1O)c1ccccc1 (stereo not shown) [Example 288, 3-[2-hydroxy-4-[2-(pyrimidin-2-ylamino)-ethoxy]benzoyl-amino]-3-phenyl-propanoic acid ethyl ester] | – | – | – | 0.003 µM | IC50 (osteoclasts; Rattus norvegicus, Osteoclast, read-out: bone pitting IC50): 0.44 µM
O=C(O)CC(NC(=O)c1ccc(OCCNC2=NCCCN2)cc1O)c1ccccc1 (stereo not shown) [Example 291, 3-[2-hydroxy-4-[2-(3,4,5,6-tetrahydropyrimidin-2-ylamino)ethoxy]-benzoylamino]-3-phenyl-propanoic acid] | 28 µM | – | 41% | 0.44 µM | –
O=C(N[C@@H](CNC(=O)c1ccc(OCCNc2ncccn2)cc1O)C(=O)O)OCc1ccccc1 [Example 297, 2(S)-Benzyloxycarbonylamino-3-[2-hydroxy-4-[2-(pyrimidin-2-ylamino)ethoxy]-benzoylamino]propionic acid] | 50 µM | 25 µM | – | – | –
CCOC(=O)[C@H](CNC(=O)c1ccc(OCCNc2ncccn2)cc1O)NC(=O)OCc1ccccc1 [Example 299, 2(S)-Benzyloxycarbonylamino-3-[2-hydroxy-4-[2-(pyrimidin-2-ylamino)ethoxy]-benzoylamino]propionic acid ethyl ester hydro-chloride] | – | 1.9 µM | – | – | IC50 (μM) Cell (αVβ3 integrin): inactive @ 100; inhibition in vivo at 100 mg/kg ([1]; po): 102%; melting point: 124 to 125 °C
Calcitonin: anti-resorptive used in the clinic; rat calcitonin is the reference compound of the pitting assay (CGNLSTCMLGTYTQDLNKFHTFPQTSIGVGAP; ends and bridges not checked; cysteine pairing not given here; UniProt P01257 85-116, looked up) [reference compound] | – | – | – | – | osteoclast inhibitory activity (osteoclasts): significant osteoclast inhibitory activity
